Results taken from patent US20100093824A1 (priority 2006, published 2010).
Like-named read-outs stand apart in the source and are kept apart here. Non-standard residues stand in square brackets, D forms with d. Residues, ends and D or L forms follow the SMILES beside them. Nle = CCCC[C@H](N)C(=O)O

Columns and labels:
[1] = system: poliovirus; test: microbe, parasite or virus in culture; format: cell-based, Poliovirus Mahoney type 1 strain; conditions: Enterovirus C, Fibroblast, read-out: inhibition of poliovirus replication
[2] = system: poliovirus; test: microbe, parasite or virus in culture; format: cell-based, Poliovirus Mahoney type 1 strain; conditions: Enterovirus C, HeLa S3, 7 h, read-out: IC50 of inhibition of poliovirus replication
[3] = system: poliovirus; format: cell-based
[4] = system: capsid precursor P1; format: cell-based, poliovirus
[5] = system: poliovirus; test: microbe, parasite or virus in culture; format: cell-based, Poliovirus Mahoney type 1 strain; conditions: Enterovirus C, HeLa S3, read-out: inhibition of virus production in vRNA transfected cells
[6] = system: L protein, the Respiratory Syncytial virus polymerase; format: cell-based, RSV, strain A2; conditions: Hep-2 cells, 17AAG 5 μM
[7] = mouse, in vivo, ip
[8] = system: poliovirus; set-up: species or system cPVR transgenic mice; conditions: mouse, in vivo

**Q.** What does the source list for `COC1=C2C[C@@H](C)C[C@H](OC)[C@H](O)[C@@H](C)/C=C(\C)[C@H](OC(N)=O)[C@@H](OC)/C=C\C=C(/C)C(=O)NC(=CC1=O)C2=O` [GA, Geldanamycin]?
**A.** inhibition at 0.1 µM [1]: > 99%; IC50 [2]: 0.11 µM; reduction in virus production [3]: ~50%; time in which P1 was readily degraded after treatment [4]: ≤ 3 h; inhibition at 2 µM [5]: 95%

**Q.** Which “protection of P1 from GA-induced degradation” value [4] does the source give for `CC(=O)N[C@@H](CSC(=O)[C@]1([C@@H](O)C(C)C)NC(=O)[C@H](C)[C@@H]1O)C(=O)O` [lactacystin, Lactacystin] here?
**A.** Its value is “protected P1 from degradation”.

**Q.** Which “protection of P1 from GA-induced degradation” value [4] does the source give for `CCCC[C@@H](C=O)NC(=O)[C@H](CC(C)C)NC(=O)[C@H](CC(C)C)NC(C)=O` [ALLN, N-Acetyl-L-leucyl-L-leucyl-L-norleucinal] (Ac-Leu-Leu-[Nle]-aldehyde) here?
**A.** The value was “protected P1 from degradation”.

**Q.** Which “maximal reduction in virus production” value [3] does the source give for trichostatin A [TSA] here?
**A.** The value was 30%.

**Q.** Which results are given for `C=CCNC1=C2C[C@@H](C)CC(OC)[C@H](O)[C@@H](C)/C=C(\C)C(OC(N)=O)C(OC)/C=C\C=C(/C)C(=O)NC(=CC1=O)C2=O` (stereo partly shown) [17AAG, 17-Allylamino-17-demethoxygeldanamycin]?
**A.** effect on RSV L protein [6]: causes degradation of L protein; apparent toxicity to the treated animal [7]: did not result in any apparent toxicity; viral load in the CNS [8]: dramatically reduced the viral load; mice with virus decreased to undetectable levels ([8]; 2.5 mg/kg): 4 of 8; mice with virus decreased to undetectable levels ([8]; 25 mg/kg): 5 of 8
